Reference: PubChem BioAssay (NCI)
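Following 48 hours of exposure in 96-well plates, responses at five concentrations were used to interpolate endpoints linearly. TGI marks complete inhibition of growth.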

Assays:
Test in all cases: inhibition of tumour cell growth, NCI panel, 48 h
[1] = system: KM20L2 colon
[2] = system: SNB-78 CNS
[3] = system: LXFL 529 NSCLC
[4] = system: HOP-18 NSCLC
[5] = system: DMS 273 small cell lung
[6] = system: XF 498 CNS
[7] = system: M19-MEL melanoma
[8] = system: DLD-1 colon
[9] = system: RXF-631 renal

Compound	TGI [1]	TGI [2]	TGI [3]	TGI [4]	TGI [5]	TGI [6]	TGI [7]	TGI [8]	TGI [9]
C/C(CC(=O)Nc1ccc(Cl)c(Cl)c1)=N/NC(=O)C[n+]1ccccc1	> 100 µM	> 100 µM	> 100 µM	> 100 µM	> 100 µM	> 100 µM	> 100 µM		
COC(=O)c1ccc(OCc2ccc3nc(OC)c(OC)nc3c2)cc1		> 100 µM		> 100 µM	> 100 µM	> 100 µM	> 100 µM	> 100 µM	
COc1ccc(N2C(=O)C3c4[nH]c5ccc(OC)cc5c4C4CCC(C(C)(C)C)CC4C3C2=O)cc1 (centres undefined)	> 100 µM	45.3 µM	65.2 µM	> 100 µM	40.1 µM	> 100 µM	> 100 µM	> 100 µM	
O=C(O)/C=C/n1c2ccccc2c(=O)c2ccccc21	> 100 µM	> 100 µM			> 100 µM	> 100 µM	> 100 µM	> 100 µM	> 100 µM
CNC(=O)CN(CC(=O)NC)C(=O)NC	> 100 µM	> 100 µM	> 100 µM		> 100 µM	> 100 µM	> 100 µM	> 100 µM	
CC(=O)c1cccc(NC(=O)/C(=N\NC(C)(C)C)c2c(O)c3ccccc3oc2=O)c1	> 100 µM		> 100 µM	> 100 µM	> 100 µM	> 100 µM	> 100 µM	> 100 µM	
CC1(C)COC(C23C4C5C2C2C3C4C52I)=N1 (centres undefined)	> 100 µM	> 100 µM	> 100 µM	> 100 µM		> 100 µM	> 100 µM	> 100 µM	
CCCN(CCCCC(NC(C)=O)C(=O)NCc1ccccc1)C(=O)N(C)N=O (centres undefined)	> 100 µM	> 100 µM	> 100 µM		> 100 µM	> 100 µM	> 100 µM	> 100 µM	
C=CCCC(OCOCCOC)c1cc(C)c(O[Si](C)(C)C(C)(C)C)c(C)c1 (centres undefined)	29 µM	> 100 µM	> 100 µM	96.4 µM			55.3 µM		30.4 µM
COc1ccc2c(c1)c(=O)c1ccccc1n2/C=C/C(=O)O	> 100 µM	> 100 µM	> 100 µM	> 100 µM	> 67 µM	> 100 µM		> 66.2 µM	
COc1ccc(N2C(=O)C3c4[nH]c5ccccc5c4C4CCCCCCCCCCC4C3C2=O)cc1 (centres undefined)	11.5 µM		23.7 µM	6.53 µM	18.6 µM	28 µM	> 52.2 µM	> 39.9 µM	
COc1cccc2c1CCc1ccccc1CC2=O	> 100 µM		> 100 µM	> 100 µM	> 100 µM	> 100 µM	> 100 µM	> 100 µM	
CCN1CCC(O)(c2ccc(C)cc2)C(C(=O)c2ccc(C)cc2)C1 (centres undefined)	17.7 µM	> 76.8 µM	31.3 µM	36.9 µM	34.7 µM	33.1 µM	> 61.2 µM	33.4 µM	
CCOC(=O)/C(=C\c1ccc(O)c(OC)c1)C(=O)c1ccccc1	> 56.7 µM	8.36 µM	> 39.5 µM	> 100 µM		> 52 µM	79.6 µM	38.2 µM	
C/C(=N\NS(=O)(=O)c1ccc(C)cc1)C(CN1CCOCC1)C(c1ccccc1)c1c(O)c2ccccc2oc1=O (centres undefined)	> 100 µM	> 100 µM	> 100 µM	> 100 µM		> 100 µM	> 100 µM	> 100 µM	> 100 µM
COc1cc(C2=NN(C)C(c3ccc([N+](=O)[O-])o3)C2)cc(OC)c1OC (centres undefined)	> 100 µM	> 100 µM	> 100 µM	> 100 µM	> 100 µM		> 100 µM	> 100 µM	> 100 µM
COc1c(Cl)c2c(c(OC)c1OC)-c1ccc(OC)c(=O)c(Cl)c1C(NC(C)=O)CC2 (centres undefined)		> 100 µM	> 100 µM	> 100 µM	> 100 µM	12.9 µM	> 28.4 µM	> 100 µM	6.32 µM
Cc1nc2c(n1CCO)C(=O)c1ccccc1C2=O	> 100 µM	> 100 µM	> 100 µM		70.2 µM	92.9 µM	6.6 µM	> 100 µM	
O=S1(=O)OCCOS(=O)(=O)C1I		> 100 µM	> 100 µM		> 100 µM	> 100 µM	> 100 µM	> 100 µM	> 100 µM
O=C1CCCCC1CN1CCCC1 (centres undefined)	> 100 µM	> 100 µM	> 100 µM		> 100 µM	> 100 µM	> 100 µM	> 100 µM	
CC1=NN(c2ccccc2)C(=O)C1=C1SCCS1	> 100 µM	> 100 µM	> 100 µM	> 100 µM	> 100 µM	> 100 µM	> 100 µM	> 57.9 µM	> 100 µM
CN(C)c1ccc(-c2cc(=O)c3cc4c(cc3[nH]2)OCO4)cc1	> 100 µM		> 100 µM		> 100 µM	> 100 µM	> 100 µM	> 100 µM	> 100 µM
COc1ccc(C[C@@H]2Cc3cc(OC)c(OC)cc3CN2C)cc1	> 100 µM	> 100 µM	> 100 µM			> 100 µM		> 100 µM	
